The nature of data set [1]: Stability of compound assessed as compound decomposition at 4 degree C measured after 3 weeks. Format: physicochemical. The note with it: 504 h.
The nature of data set [2]: Stability of compound in DCM incubated at room temperature. Format: physicochemical.
Data set [3] can be described thus: Stability of compound in THF incubated at room temperature. Type of data set: physicochemical.
A short description of data set [4]: Induction of DPPH reduction by H2S2 generated from parent compound by UV spectrometry. Details: scale not given: the % may be the effect or the level left.
In data set [5] the test system is PC-3. In words: Induction of H2S generation in human PC3 cells at 100 uM measured after 30 mins by DSP-3 probe based fluorescence assay. Type of data set: functional, cell-based.
Data set [6] deals with PC-3. Briefly: Induction of H2S generation in human PC3 cells at 100 uM pretreated with thiol blocking reagent NEM for 30 mins followed by lysine treatment for 20 mins and subsequent compound treatment after 30 mins by DSP-3 probe based fluorescence assay. Format: functional, cell-based.
Data set [7] in a line: Cysteine reactivity in human PC3 cells under physiological conditions. The note with it: pc-3. Format: ADME, cell-based.
Data set [8] concerns PC-3. Briefly: Induction of H2S2 generation in human PC3 cells at 100 uM measured after 30 mins by DSP-3 probe based fluorescence assay. Format: functional, cell-based.
Data set [9] is described as follows: GSH reactivity in human PC3 cells under physiological conditions. Format: ADME, cell-based. The settings on record: pc-3.
The subject of data set [10] is PC-3. Briefly: Induction of H2S2 generation in human PC3 cells at 100 uM pretreated with thiol blocking reagent NEM for 30 mins followed by lysine treatment for 20 mins and subsequent compound treatment after 30 mins by DSP-3 probe based fluorescence assay. Format: functional, cell-based.
Data set [11] concerns HeLa. In words: Induction of H2S generation in human HeLa cells at 100 uM measured after 30 mins by DSP-3 probe based fluorescence assay. Type of data set: functional, cell-based.
The test system of data set [12] is HeLa. Briefly: Induction of H2S2 generation in human HeLa cells at 100 uM pretreated with thiol blocking reagent NEM for 30 mins followed by lysine treatment for 20 mins and subsequent compound treatment after 30 mins by DSP-3 probe based fluorescence assay. Type of data set: functional, cell-based.
For data set [13], the system named is HeLa. Briefly: Induction of H2S2 generation in human HeLa cells at 100 uM measured after 30 mins by DSP-3 probe based fluorescence assay. Format: functional, cell-based.
For data set [14], the system named is HeLa. Briefly: Induction of H2S generation in human HeLa cells at 100 uM pretreated with thiol blocking reagent NEM for 30 mins followed by lysine treatment for 20 mins and subsequent compound treatment after 30 mins by DSP-3 probe based fluorescence assay. Format: functional, cell-based.
Data set [15] is described as follows: Drug metabolism in PBS buffer assessed as hydrolysis at pH 7.4 in presence of 25 uM CTAB by DSP-3 probe based fluorescence assay. Format: physicochemical.

SMILES strings stand for the structures. The source made the active and inactive calls. The calls are words filed in the database; no cut-off is given here.

In the case of `O=C(Cc1ccccc1)SSC(=O)Cc1ccccc1`, the Stability result in data set [1], in data set [2] and in data set [3] was “Stable” each time.

As for `CC[Si](CC)(CC)OC(S)C(C)C` (centres undefined), the Activity in [4] is 15%.

For the compound `NCCN`, the Activity in [4] came out at 40%.

Turning to `CC[Si](CC)(CC)OC(SSC(O[Si](CC)(CC)CC)C(C)C)C(C)C` (centres undefined), the Activity in [4] turned out to be 30%.

Turning to `CC(=O)SSC(C)=O`, the Stability result in [1], in data set [2] and in data set [3] was “Stable” in each case. The outcome in the data set on PC-3 [5], in the data set on PC-3 [6], in the data set on PC-3 [8], in the data set with PC-3 [10], in the data set with HeLa [11] and with HeLa [12] was Active. Moreover, the outcome with HeLa [13] and in the data set on HeLa [14] was Active. Besides, the Drug metabolism entry in [7] and in [9] was “Active” in each case. Also, in data set [4], the Activity worked out at 40%.

With `CC(C)(C(=O)SSC(=O)C(C)(C)c1ccccc1)c1ccccc1`, the Stability entry in data set [1], in data set [2] and in [3] was “Stable” throughout. The Drug metabolism result in [15] was “Metabolite_Notdetected”.
